Experiments:
HuTu 80 [1] = assay: cells; details: Homo sapiens, HuTu80, read-out: IC50, HuTu 80
M-HeLa = assay: cells; assay type: cell-based, human; details: for IC50: Homo sapiens, M-HeLa, MTT, cancer cell line, three independent experiments; for SI, M-HeLa: selectivity index vs Chang liver normal cells, ns = no selectivity
Chang Liver [2] = details: relative to 5-fluorouracil
HuTu 80 cells [3] = assay: Cell cycle analysis by flow cytometry; assay type: cell-based, human; details: 24 h; for cells in G1/G0 phase: control 77%
Procedure: Taking into account the high potency and selectivity of the compound 2a, some additional experiments were carried out to study in more details its anti-cancer action. The mechanism of action of cytotoxic agents is often associated with cell cycle arrest, which leads to a slowing down of cell proliferation. So, we have performed a cell cycle analysis for the HuTu 80 cells using flow cytometry. […] Meanwhile, the proportion of cells in S phase decreased almost by half (8.2% vs. 4.7%).

Chang Liver [4] = assay: cells; details: Homo sapiens, read-out: IC50, Chang Liver
HuTu 80 [5] = details: for SI, HuTu 80: selectivity index vs Chang liver normal cells, ns = no selectivity
MCF-7 = assay: cells; assay type: cell-based, human; details: for IC50: Homo sapiens, MCF7, MTT, cancer cell line, three independent experiments; for SI, MCF-7: selectivity index vs Chang liver normal cells, ns = no selectivity
HuTu 80 cells [6] = assay: Intracellular ROS, CellROX Deep Red flow cytometry; assay type: cell-based, human; details: for CellROX Deep Red fluorescence intensity (ROS production): control 700
From the text: An increase in the production of reactive oxygen species (ROS) by compounds also characterizes the development of apoptosis along the mitochondrial pathway. Mitochondria are a potential source and target of ROS. ROS leads to dysfunction of the mitochondria and, consequently, to irreversible cell damage. In this regard, the effect of the lead compound 2a in HuTu 80 cells on ROS production was investigated using a flow cytometry assay and the CellROX® Deep Red flow cytometry kit. The data presented in Figure 6 show a significant increase in CellROX® Deep Red fluorescence intensity dominated by IC50/2.
HuTu 80 cells were incubated with compound 2a at concentrations of IC50 for 24 h. ROS generation was investigated using flow cytometry assay and CellROX® Deep Red flow cytometry kit. For this HuTu 80 cells were harvested at 2000 rpm for 5 min and then washed twice with ice-cold PBS, followed by resuspension in 0.1 mL of medium without FBS, to which was added 0.2 μL of CellROX® Deep Red and incubated at 37 °C for 30 min After being washed three times, the cells were suspended in PBS, and the production of ROS in the cells was immediately monitored using a flow cytometer Guava easy Cyte, MERCK, Rahway, NJ, USA).

HuTu 80 cells [7] = assay: Mitochondrial membrane potential, JC-10 flow cytometry; assay type: cell-based, human; details: IC50/2 and IC50, more pronounced at IC50/2
Procedure: The possibility of apoptosis through the mitochondrial pathway was assessed by flow cytometry using the JC-10 fluorescent dye (in the Mitochondria Membrane Potential Kit). In normal cells with a high membrane potential, JC-10 accumulates in the mitochondrial matrix, where it forms aggregates with a red fluorescence. However, in apoptotic cells, a decrease in the membrane potential occurs. JC-10 diffuses from mitochondria and turns into a monomeric form, emitting a green fluorescence, which is recorded by a flow cytometer (Figure 4). […] As in the experiment with V-Alexa Fluor 647, the cytotoxic effect of compound 2a was more pronounced at IC50/2 concentration.
Cells were harvested at 2000 rpm for 5 min and then washed twice with ice-cold PBS, followed by resuspension in JC-10 (10 µg/mL) and incubation at 37 °C for 10 min. After the cells were rinsed three times and suspended in PBS, the JC-10 fluorescence was observed by flow cytometry (Guava easy Cyte, MERCK, Rahway, NJ, USA).

HuTu 80 cells [8] = assay: Apoptosis induction, annexin V-Alexa Fluor 647 / propidium iodide flow cytometry; assay type: cell-based, human; details: 24-h incubation, most active at IC50/2 (12.5 µM), early apoptosis stage
Procedure: Cell Culture. HuTu 80 cells at 1 × 10^6 cells/well in a final volume of 2 mL were seeded into six-well plates. After 24 h of incubation, various concentrations of compound 2a were added to wells.
Cell Apoptosis Analysis. The cells were harvested at 2000 rpm for 5 min and then washed twice with ice-cold PBS, followed by resuspension in binding buffer. Next, the samples were incubated with 5 μL of annexin V- Alexa Fluor 647 (Sigma-Aldrich, St. Louis, MO, USA) and 5 μL of propidium iodide for 15 min at room temperature in the dark. Finally, the cells were analyzed by flow cytometry (Guava easy Cyte, MERCK, Rahway, NJ, USA) within 1 h. The experiments were repeated three times.

Solubility in water = assay type: physicochemical; details: in words; reason for exclusion from cytotoxicity studies

SMILES | IC50 (HuTu 80 [1]) [µM] | IC50 (M-HeLa) [µM] | SI, M-HeLa (M-HeLa) | IC50 (Chang Liver [4]) [µM] | SI, HuTu 80 (HuTu 80 [5]) | melting point [°C] | IC50 (MCF-7) [µM] | SI, MCF-7 (MCF-7) | other results
Cc1cc(C)c2c(c1C)OP(=O)(O)[C@@H]1CN(C)C3(C(=O)c4ccccc4C3=O)[C@H]21 [2a, (3aS,9bS)-4-hydroxy-2,6,7,9-tetramethyl-2,3,3a,9b-tetrahydrospiro[benzo [5,6][1,2]oxaphosphinino [3,4-c]pyrrole-1,2’-indene]-1’,3’-dione 4-oxide] | 25.1 ± 1.9 | 52.6 ± 4.1 | >15 | > 800 | >32 | > 300 | 82.3 ± 7.5 | – | cytotoxicity against Chang liver normal cell line, fold lower than reference compound (Chang Liver [2]): more than 10 fold; effect on cell cycle (in words) (HuTu 80 cells [3]; 12.5 and 25 µM): induces G0/G1 phase arrest; cells in S phase (HuTu 80 cells [3]; IC50 (25 µM), control 8.2%): 4.7%; cells in G1/G0 phase (HuTu 80 cells [3]; IC50 (25 µM)): 81.0%; cells in G1/G0 phase (HuTu 80 cells [3]; IC50/2 (12.5 µM)): 79.0%; cytotoxicity against HuTu 80 cell line, fold higher than reference 5-fluorouracil (HuTu 80 [5]; relative to 5-fluorouracil): ~2.6 fold; CellROX Deep Red fluorescence intensity (ROS production) (HuTu 80 cells [6]; IC50 (25 µM)): 1500; CellROX Deep Red fluorescence intensity (ROS production) (HuTu 80 cells [6]; IC50/2 (12.5 µM)): 2000; effect on ROS production (in words) (HuTu 80 cells [6]; IC50/2 and IC50, dominated by IC50/2): increase in ROS production; effect on mitochondrial membrane potential (in words) (HuTu 80 cells [7]): significant decrease; induction of apoptosis (in words) (HuTu 80 cells [8]): begins to induce apoptosis
O=C1c2ccccc2C(=O)C12[C@@H]1c3ccc4cc(Br)ccc4c3OP(=O)(O)[C@@H]1[C@H]1CCCN12 [2g, (8a’S,8b’R,13a’S)-4’-bromo-8’-hydroxy-8a’,8b’,9’,10’,11’,13a’-hexahydrospiro[indene-2,13’-naphtho [2’,1’:5,6][1,2]oxaphosphinino [3,4-a]pyrrolizine]-1,3-dione 8’-oxide] | – | – | – | – | – | > 300 | – | – | solubility in water (Solubility in water): extremely low
COc1ccc2c(c1)OP(=O)(O)[C@@H]1CN(C)C3(C(=O)c4ccccc4C3=O)[C@H]21 [2b, (3aS,9bS)-4-hydroxy-7-methoxy-2-methyl-2,3,3a,9b-tetrahydrospiro[benzo [5,6][1,2]oxaphosphinino [3,4-c]pyrrole-1,2’-indene]-1’,3’-dione 4-oxide] | 53.4 ± 4.2 | 59.7 ± 4.6 | 1 | 62 ± 5.5 | 1.2 | – | > 100 | ns | –
CN1c2c(c(=O)oc3ccccc23)CC12C(=O)c1ccccc1C2=O | – | – | – | – | – | > 300 | – | – | –
O=C1c2ccccc2C(=O)C12[C@@H]1c3ccc4ccccc4c3OP(=O)(O)[C@@H]1[C@H]1CCCN12 [2f, (8a’S,8b’R,13a’S)-8’-hydroxy-8a’,8b’,9’,10’,11’,13a’-hexahydrospiro[indene-2,13’-naphtho [2’,1’:5,6][1,2]oxaphosphinino [3,4-a]pyrrolizine]-1,3-dione 8’-oxide] | – | – | – | – | – | > 300 | – | – | solubility in water (Solubility in water): extremely low
Cc1cc(C)c2c(c1C)OP(=O)(O)[C@@H]1[C@H]3CCCN3C3(C(=O)c4ccccc4C3=O)[C@H]21 [2e, (6aS,6bR,11aS)-6-hydroxy-1,3,4-trimethyl-6a,6b,7,8,9,11a-hexahydrospiro[benzo [5,6][1,2]oxaphosphinino [3,4-a]pyrrolizine-11,2’-indene]-1’,3’-dione 6-oxide] | > 100 | > 100 | ns | > 100 | ns | > 300 | > 100 | ns | –
O=c1[nH]cc(F)c(=O)[nH]1 [5-fluorouracil, reference compound] | 65.2 ± 5.6 | 62 ± 4.7 | 1.4 | – | 1.3 | – | 16.7 ± 1.3 | 5 | –
CN1C[C@@H]2[C@@H](c3c(O)c(Cl)cc(Cl)c3OP2(=O)O)C12C(=O)c1ccccc1C2=O [2c, (3aS,9bS)-6,8-dichloro-4,9-dihydroxy-2-methyl-2,3,3a,9b-tetrahydrospiro[benzo [5,6][1,2]oxaphosphinino [3,4-c]pyrrole-1,2’-indene]-1’,3’-dione 4-oxide] | 100 ± 8.4 | > 100 | ns | > 100 | ns | > 300 | 77.6 ± 6.2 | ns | –
CN1C[C@@H]2[C@@H](c3ccc4ccccc4c3OP2(=O)O)C12C(=O)c1ccccc1C2=O [2d, (3a’S,11a’S)-11’-hydroxy-2’-methyl-1’,2’,3a’,11a’-tetrahydrospiro[indene-2,3’-naphtho [2’,1’:5,6][1,2]oxaphosphinino [3,4-c]pyrrole]-1,3-dione 11’-oxide] | 82.6 ± 7.6 | 60 ± 5.4 | ns | 57 ± 4.3 | ns | > 300 | 92.2 ± 8.3 | ns | –

Reference: paper PMC9695012, “Diastereoselective Synthesis of Novel Spiro-Phosphacoumarins and Evaluation of Their Anti-Cancer Activity” (International Journal of Molecular Sciences, 2022)
